The values below come from patent US11358936B2, “Lysyl oxidase-like 2 inhibitors and uses thereof” (PharmAkea, Inc., priority 2015, dated 2022).

Where a name gives a salt, the structure may show the parent alone.

human LOXL2, sequence (Q9Y4K0 26-774): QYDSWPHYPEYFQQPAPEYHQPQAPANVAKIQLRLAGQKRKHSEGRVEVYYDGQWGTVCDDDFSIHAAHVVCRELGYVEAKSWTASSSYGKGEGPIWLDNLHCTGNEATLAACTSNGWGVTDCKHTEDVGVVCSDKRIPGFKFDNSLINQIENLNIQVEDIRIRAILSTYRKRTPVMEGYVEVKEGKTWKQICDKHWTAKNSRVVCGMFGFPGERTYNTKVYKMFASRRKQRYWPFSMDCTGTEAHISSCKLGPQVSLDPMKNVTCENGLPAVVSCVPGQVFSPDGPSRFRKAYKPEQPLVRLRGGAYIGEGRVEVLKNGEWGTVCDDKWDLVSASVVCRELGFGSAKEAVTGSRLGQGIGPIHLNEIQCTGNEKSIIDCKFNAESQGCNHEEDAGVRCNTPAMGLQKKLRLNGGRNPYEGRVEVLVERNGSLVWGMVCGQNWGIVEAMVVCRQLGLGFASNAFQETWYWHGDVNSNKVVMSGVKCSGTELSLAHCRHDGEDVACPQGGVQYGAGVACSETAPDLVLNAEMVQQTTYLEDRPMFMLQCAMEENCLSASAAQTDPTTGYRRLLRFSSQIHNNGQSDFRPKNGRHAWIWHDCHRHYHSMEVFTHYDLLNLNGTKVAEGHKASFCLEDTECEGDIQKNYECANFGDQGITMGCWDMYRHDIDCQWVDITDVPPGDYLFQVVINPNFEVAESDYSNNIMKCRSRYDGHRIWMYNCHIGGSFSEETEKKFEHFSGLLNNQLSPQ

The assay deals with human LOXL2 (Homo sapiens (Human), UniProt Q9Y4K0). Briefly: Human LOXL2 Amine Oxidase Activity Assay (Amplex Red fluorescence). The assay is classed as biochemical. As to conditions: concentrated conditioned media from CHO cells stably expressing human LOXL2; 2 h at 37° C. preincubation; DAP substrate; read-out: IC50. On the procedure:
LOXL2 amine oxidase activity is evaluated by measuring Amplex Red fluorescence using 10-20× concentrated conditioned media from CHO cells stably expressing human LOXL2. To assay for amine oxidase activity, 10 μL of the concentrated conditioned media is incubated with 2 μL of test compound in DMSO and 73 μL Assay Buffer (50 mM Borate Buffer, pH8) for 2 h at 37° C. After the 2 h incubation, 5 μl of 10 mM 1,5-Diaminopentane (DAP) diluted in Assay Buffer and 10 μl of Amplex Red Mix (8.5 μl Assay Buffer+0.5 μl of 10 mM Amplex Red+1 μl of 500 U/ml Horseradish Peroxidase) are added and the plate mixed and immediately placed on the FlexStaion for fluorescence measurements. Fluorescence is read in kinetic mode every 2 min for 1 hour at excitation=544 and emission=590. The amine oxidase activity is calculated from the slope of the linear portion of the curve.
In general, IC50 refers to the concentration needed to halve the response being measured. With `Cc1ccc(Cl)cc1NC(=O)c1cccc(-c2cc(CN)ccn2)c1` [Compound 1-9, 3-(4-(Aminomethyl)pyridin-2-yl)-N-(5-chloro-2-methylphenyl)benzamide hydrochloride], the IC50 was < 300 nM.

On to `NCc1ccnc(-c2cccc(C(=O)Nc3cc(Cl)cc4[nH]ccc34)c2)c1` [Compound 1-10, 3-(4-(Aminomethyl)pyridin-2-yl)-N-(6-chloro-1H-indol-4-yl)benzamide hydrochloride], for which the half-maximal inhibitory concentration (IC50) is < 300 nM.

Consider `COCCNC(=O)c1ccc(Oc2cc(CN)ccn2)cc1` [Compound 1-11, 4-((4-(Aminomethyl)pyridin-2-yl)oxy)-N-(2-methoxyethyl)benzamide hydrochloride], for which the 50% inhibitory concentration (IC50) is 300 to 1000 nM.

In the case of `NCc1ccnc(Oc2ccc(C(=O)Nc3ccccc3)cc2)c1` [Compound 1-13, 4-((4-(Aminomethyl)pyridin-2-yl)oxy)-N-phenylbenzamide hydrochloride], the 50% inhibitory concentration (IC50) is < 300 nM.

Turning to `NCc1ccnc(Oc2ccc(C(=O)NCc3ccccc3)cc2)c1` [Compound 1-14, 4-((4-(Aminomethyl)pyridin-2-yl)oxy)-N-benzylbenzamide hydrochloride], the half-maximal inhibitory concentration (IC50) is < 300 nM.

For the molecule `COCCNC(=O)c1cccc(Oc2cc(CN)ccn2)c1` [Compound 1-15, 3-((4-(Aminomethyl)pyridin-2-yl)oxy)-N-(2-methoxyethyl)benzamide hydrochloride], the IC50 is < 300 nM.

As to `NCc1ccnc(Oc2cccc(C(=O)Nc3ccccc3)c2)c1` [Compound 1-17, 3-((4-(Aminomethyl)pyridin-2-yl)oxy)-N-phenylbenzamide hydrochloride], the IC50 was < 300 nM.

Take `NCc1ccnc(Oc2cccc(C(=O)NCc3ccccc3)c2)c1` [Compound 1-18, 3-((4-Aminomethyl)pyridin-2-yl)oxy)-N-benzylbenzamide hydrochloride]: the half-maximal inhibitory concentration (IC50) was < 300 nM.

With `COc1cccc(NC(=O)c2cccc(Oc3cc(CN)ccn3)c2)c1` [Compound 1-19, 3-((4-(Aminomethyl)pyridin-2-yl)oxy)-N-(3-methoxyphenyl)benzamide hydrochloride], the half-inhibitory concentration (IC50) is < 300 nM.

For `COc1ccc(NC(=O)c2cccc(Oc3cc(CN)ccn3)c2)cc1` [Compound 1-20, 3-((4-Aminomethyl)pyridin-2-yl)oxy)-N-(4-methoxyphenyl)benzamide hydrochloride], the half-inhibitory concentration (IC50) was < 300 nM.

As for `NCc1ccnc(Oc2cccc(C(=O)Nc3cccc(C(F)(F)F)c3)c2)c1` [Compound 1-21, 3-((4-Aminomethyl)pyridin-2-yl)oxy)-N-(3-(trifluoromethyl)phenyl)benzamide hydrochloride], the half-maximal inhibitory concentration (IC50) is < 300 nM.

With `NCc1ccnc(Oc2cccc(C(=O)Nc3ccc(C(F)(F)F)cc3)c2)c1` [Compound 1-22, 3-((4-(Aminomethyl)pyridin-2-yl)oxy)-N-(4-(trifluoromethyl)phenyl)benzamide hydrochloride], the half-inhibitory concentration (IC50) is < 300 nM.

`NCc1ccnc(Oc2cccc(C(=O)Nc3ccc(F)cc3)c2)c1` [Compound 1-23, 3-((4-Aminomethyl)pyridin-2-yl)oxy)-N-(4-fluorophenyl)benzamide hydrochloride]: the IC50 is < 300 nM.

For `NCc1ccnc(Oc2cccc(C(=O)Nc3ccc(F)cc3F)c2)c1` [Compound 1-24, 3-((4-Aminomethyl)pyridin-2-yl)oxy)-N-(2,4-difluorophenyl)benzamide hydrochloride], the IC50 is < 300 nM.

`NCc1ccnc(Oc2cccc(C(=O)Nc3ccc(Br)cc3)c2)c1` [Compound 1-25, 3-((4-(Aminomethyl)pyridin-2-yl)oxy)-N-(4-bromophenyl)benzamide hydrochloride]: the half-inhibitory concentration (IC50) is < 300 nM.

`COC(=O)c1ccc(NC(=O)c2cccc(Oc3cc(CN)ccn3)c2)cc1` [Compound 1-26, Methyl 4-(3-((4-(amindimethyl)pyridin-2-yl)oxy)benzamido)benzoate hydrochloride]: the IC50 was < 300 nM.

For `CCOC(=O)c1cccc(NC(=O)c2cccc(Oc3cc(CN)ccn3)c2)c1` [Compound 1-27, Ethyl 3-(3-((4-(aminomethyl)pyridin-2-yl)oxy)benzamido)benzoate hydrochloride], the IC50 was < 300 nM.

As for `NCc1ccnc(Oc2cccc(C(=O)Nc3cccc(C(=O)O)c3)c2)c1` [Compound 1-28, 3-(3-((4-(Aminomethyl)pyridin-2-yl)oxy)benzamido)benzoic acid hydrochloride], the IC50 was < 300 nM.

With `NCc1ccnc(Oc2cccc(C(=O)Nc3ccc(C(=O)O)cc3)c2)c1` [Compound 1-29, 4-(3-((4-(Aminomethyl)pyridin-2-yl)oxy)benzamido)benzoic acid hydrochloride], the IC50 is < 300 nM.

Consider `NCc1ccnc(Oc2cccc(C(=O)NCc3ccc(F)cc3F)c2)c1` [Compound 1-30, 3-((4-(Aminomethyl)pyridin-2-yl)oxy)-N-(2,4-difluorobenzyl)benzamide hydrochloride], for which the 50% inhibitory concentration (IC50) is < 300 nM.

For the molecule `NCc1ccnc(Oc2cccc(C(=O)NCc3ccc(C(F)(F)F)cc3)c2)c1` [Compound 1-31, 3-((4-(Aminomethyl)pyridin-2-yl)oxy)-N-(4-(trifluoromethyl)benzyl)benzamide hydrochloride], the concentration for half-maximal inhibition (IC50) is < 300 nM.

Regarding `NCc1ccnc(Oc2cccc(C(=O)NCc3ccc(Br)cc3)c2)c1` [Compound 1-32, 3-((4-(Aminomethyl)pyridin-2-yl)oxy)-yl)-(4-bromobenzyl)benzamide hydrochloride], the IC50 is < 300 nM.

In the case of `COC(=O)c1ccc(CNC(=O)c2cccc(Oc3cc(CN)ccn3)c2)cc1` [Compound 1-33, Methyl 4-((3-((4-(aminomethyl)pyridin-2-yl)oxy)benzamido)methyl)benzoate hydrochloride], the 50% inhibitory concentration (IC50) was < 300 nM.

With `NCc1ccnc(Oc2cccc(C(=O)NCc3ccc(C(=O)O)cc3)c2)c1` [Compound 1-34, 4-((3-((4-Aminomethyl)pyridin-2-yl)oxy)benzamido)methyl)benzoic acid hydrochloride], the IC50 was < 300 nM.

Turning to `NCc1ccnc(Oc2cccc(C(=O)NCc3cccc(C(=O)O)c3)c2)c1` [Compound 1-35, 3-((3-((4-Aminomethyl)pyridin-2-yl)oxy)benzamido)methyl)benzoic acid hydrochloride], the IC50 was < 300 nM.

As for `NCc1ccnc(Oc2cccc(C(=O)N[C@@H](CO)c3ccccc3)c2)c1` [Compound 1-36, (R)-3-((4-Aminomethyl)pyridin-2-yl)oxy)-N-(2-hydroxy-1-phenylethyl)benzamide hydrochloride], the IC50 was < 300 nM.

For `NCc1ccnc(Oc2cccc(C(=O)NCc3ccc(-n4ccnc4)c(F)c3)c2)c1` [Compound 1-37, 3-((4-(Aminomethyl)pyridin-2-yl)oxy)-N-(3-fluoro-4-(1H-imidazol-1-yl)benzyl)benzamide dihydrochloride], the concentration for half-maximal inhibition (IC50) is < 300 nM.

Regarding `N=C(N)c1cccc(CNC(=O)c2cccc(Oc3cc(CN)ccn3)c2)c1` [Compound 1-39, 3-((4-(Aminomethyl)pyridin-2-yl)oxy)-N-(3-carbamimidoylbenzyl)benzamide dihydrochloride], the IC50 was < 300 nM.

On to `NCc1ccnc(Oc2cccc(C(=O)NCCc3ccccc3)c2)c1` [Compound 1-40, 3-((4-(Aminomethyl)pyridin-2-yl)oxy)-N-phenethylbenzamide hydrochloride], for which the IC50 is < 300 nM.

As to `NCc1ccnc(Oc2cccc(C(=O)N3CCc4ccccc4C3)c2)c1` [Compound 1-41, (3-((4-(Aminomethyl)pyridin-2-yl)oxy)phenyl)(3,4-dihydroisoquinolin-2(1H)-yl)methanone trifluoroacetate], the IC50 is < 300 nM.

`NCc1ccnc(Oc2cccc(C(=O)NCc3cc4ccccc4s3)c2)c1` [Compound 1-42, 3-((4-(Aminomethyl)pyridin-2-yl)oxy)-N-(benzo[b]thiophen-2-ylmethyl)benzamide hydrochloride]: the IC50 was < 300 nM.

For `NCc1ccnc(Oc2cccc(C(=O)NCc3cnccn3)c2)c1` [Compound 1-43, 3-((4-(Aminomethyl)pyridin-2-yl)oxy)-N-(pyrazin-2-ylmethyl)benzamide hydrochloride], the half-inhibitory concentration (IC50) is < 300 nM.

Take `CCCCCCCCCCCCCNC(=O)c1cccc(Oc2cc(CN)ccn2)c1` [Compound 1-44, 3-((4-(Aminomethyl)pyridin-2-yl)oxy)-N-tridecylbenzamide hydrochloride]: the half-inhibitory concentration (IC50) was < 300 nM.

With `NCc1ccnc(OCc2cccc(C(=O)Nc3ccccc3)c2)c1` [Compound 1-45, 3-(((4-(Aminomethyl)pyridin-2-yl)oxy)methyl)-N-phenylbenzamide hydrochloride], the IC50 was < 300 nM.

For the molecule `NCc1ccnc(-c2cccnc2)c1` [Compound 2-3, [2,3′-Bipyridin]-4-ylmethanamine], the IC50 was < 300 nM.

Take `NCc1ccnc(-c2ccc(F)cc2)c1` [Compound 2-4, (2-(4-Fluorophenyl)pyridin-4-yl)methanamine]: the IC50 is < 300 nM.

Take `NCc1ccnc(-c2cccc(C(=O)O)c2)c1` [Compound 2-5, hydrochloride]: the concentration for half-maximal inhibition (IC50) was 300 to 1000 nM.

As for `NCc1ccnc(-c2ccc(C(=O)O)cc2)c1` [Compound 2-6, 4-(4-Aminomethyl)pyridin-2-yl)benzoic acid trifluoroacetate], the IC50 lay within 300 to 1000 nM.

Consider `NCc1ccnc(Oc2cccc(Oc3ccccc3)c2)c1` [Compound 2-8, (2-(3-Phenoxyphenoxy)pyridin-4-yl)methanamine], for which the concentration for half-maximal inhibition (IC50) is < 300 nM.

`NCc1ccnc(Oc2ccc(C(=O)O)cc2)c1` [Compound 2-9, 4-((4-(Aminomethyl)pyridin-2-yl)oxy)benzoic acid hydrochloride]: the half-inhibitory concentration (IC50) lay in the range of 300 to 1000 nM.
